Data set [1] has as its system angiogenesis. The following applies: cited from earlier work.
A short description of data set [2]: Bond strength of tributyrin/cyanoacrylate blend on costal cartilage (Nene MC3000). It is filed as physicochemical. The following applies: 5% to 50% (w/w) tributyrin in cyanoacrylate; held 1 minute, cured an additional hour in aqueous conditions. Here is the method: 0.5 g of the sterile tributyrin was added to cyanoacrylate (9.5 g) to produce a 5% (w/w) blend in a sterile plastic universal tube. This was mixed for 2 minutes to ensure a homogenous blend. 40 μl aliquots of the blended adhesive were applied to freshly cut surfaces of costal cartilage. The two surfaces were held together for 1 minute allowing fixation and curing was allowed to continue for an additional hour in aqueous conditions. The bond strength was tested using a Nene MC3000 machine, where the applied force required to separate the bonded pieces of cartilage was recorded.

Data set [3] can be described thus: Release of tributyrin from cured blended adhesive disks into water, gas chromatography. Format: physicochemical. Particulars: 5% w/w tributyrin cyanoacrylate sample; 2 ml water, 50° C., 1, 5 or 7 days with continuous agitation. Here is the method: 0.5g of the sterile tributyrin was added to cyanoacrylate (9.5 g) to produce a 5% (w/w) blend in a sterile plastic universal tube. This was mixed for 2 minutes to ensure a homogenous blend. Small disks of the blended adhesive were cast onto a basic solution (dilute triethylamine 0.1% aq). The disks were removed, washed briefly and dried. The disks were then placed into 2 ml water and stored at 50° C. for 1, 5 or 7 days with continuous agitation. The water was removed then added to 2 mls dichloromethane in order to extract any released tributyrin. The dichloromethane layer was analysed using gas chromatography and the amount of tributyrin recorded. The disks were dried and then placed into fresh water at 50° C. for an additional day. The amount of tributyrin released into the fresh water was measured as described for the first samples.

Data set [4] in a line: Premature curing of cyanoacrylate by angiogenic agent. It is filed as physicochemical. The following applies: in combination with cyanoacrylate.

We go through 2 molecules from patent US20060147479A1, “Angiogenic medical cyanoacrylate adhesive” (priority 2002, published 2006).

For the molecule `CCCC(=O)O` [butyric acid, butanoic acid], the “local release sufficient to achieve the desired angiogenic effect” value in data set [1] was 10 to 1000 ng.

Consider `CCCC(=O)OCC(COC(=O)CCC)OC(=O)CCC` [tributyrin, glcerol tributyrate; 1,2,3-(propyl)tributanoate], for which the “adhesive property (bond strength; applied force required to separate the bonded pieces of cartilage)” value in data set [2] was “without an unacceptable loss of adhesive property”. The “tributyrin released from cured adhesive disks” value in data set [3] is given as “released from a 5% w/w tributyrin cyanoacrylate sample over a 7 day period”. Also, in data set [4], the “premature cure of cyanoacrylate” value is listed as “do not cause cyanoacrylate to prematurely cure”.
